In patent US20250041310A1, “Combination Therapy Comprising A2A/A2B and PD-1/PD-L1 Inhibitors” (Incyte Corporation, priority 2020, published 2025):
pEC50, pKi: −log10 of the molar value. Like-named read-outs stand apart in the source and are kept apart here.

Experiments:
[1] = target: Adenosine A2A Receptor (Homo sapiens (Human), UniProt P29274); assay: A2A Tag-lite HTRF Assay; format: binding; details: Tag-lite A2A labeled cells, fluorescent ligand 12.5 nM; read-out: A2A_Ki
Description: Test compounds were first serially diluted in DMSO and 100 nl added to the plate wells before the addition of other reaction components. The final concentration of DMSO was 1%. Tag-lite® Adenosine A2A labeled cells (CisBio C1TT1A2A) were diluted 1:5 into Tag-lite buffer (CisBio LABMED) and spun 1200 g for 5 mins.

[2] = target: human adenosine A2B receptor (Homo sapiens (Human), UniProt P29275); assay: Adenosine A2B Receptor cyclic AMP GS Assay; format: cell-based
Description: Stably transfected HEK-293 cells expressing the human adenosine A2B receptor (Perkin Elmer) were maintained in MEM culture medium with 10% FBS and 100 μg/ml Geneticin (Life Technologies). 18 to 24 hours prior to assay, geneticin was removed from culture. The cisbio cAMP-GS Dynamic kit utilizing the FRET (Fluorescence Resonance Energy Transfer) technology was used to measure cAMP accumulation in the cells. Compounds of the present disclosure at an appropriate concentration were mixed with 10000 cells/well in white 96 well half area plates (Perkin Elmer) for 30 min at RT gently shaking. […] Detection reagents, d2-labeled cAMP (acceptor) and anti-cAMP cryptate (donor) were added to each well for 60 min at RT gently shaking.

[3] = tested on: PBMC from healthy donors stimulated by CD3 antibody; assay: In vitro Mixed Lineage Reaction assay (MLR); format: cell-based; details: for effect of combination with atezolizumab: PBMC stimulated with CD3 antibody, FIGS. 2A-2D; for IFNγ production: combined with anti-PD-L1 antibody atezolizumab, 1 μM NECA, CD3 antibody, 4 days
Description: On day 0, 10,000 PBMCs from a healthy donor was co-cultured with 10,000 γ-radiated PBMCs from another healthy donor. […] Cells were incubated at 37° C. for 4 days. IFN-γ in the supernatant of each well was measured by a HTRF kit (Cisbio, 62[…]) and the fluorescent signal was detected on a Pherastar FS plate reader (BMG Labtech) on day 4.

[4] = tested on: primary T cells co-cultured with CHO-PD-L1 cells; details: 2 μM NECA
Description: In vitro the CHO-PD-L1 co-culture assay, T cells were treated in the presence of 20 CHO-PD-L1 cells with PD-1 antibody, and using 5′-N-ethylcarboxamide adenosine (NECA), an adenosine-mimicking reagent, to activate adenosine signaling.
Day 0, plate 10,000 CHO PDL1+ cells in Plate 96 Tissue Culture Flat Bottom plate in 100 ul of CHO Media without antibiotics. On day 1, T Cells were thawed and resuspended in T cell media at 1×10^6 cells/ml. Media was removed from the CHO PDL1+ cells plates and 130 ul of T cell media was added. T cell media at 198 ul was added onto the compound plates at 2 ul, or −1:100 dilution and then re-suspended. 20 ul of compounds from the compound plates were added onto the CHO cell plates at a final dilution of compounds at 1:1000. 50 ul of T cells (50,000 cells) were added onto the plates with CHO cells to make a total of 200 ul volume and incubation was carried out at 37° C. for 72 hrs. After 3 days in culture, the supernatant was collected for an hIFNg and hIL2 cytokine assay run using ProCartaplex 2 plex kits (Life Technologies Cat #PPX-02) for hIFNg and hIL2 (Manufacturer's Protocol). The cytokine assay using ProCartaplex kits are run on a Flex Map 3D Luminex multiplexing platform.

[5] = tested on: CT-26 murine colon carcinoma hosted in NSG mice; assay: In vivo efficacy study, CT-26 NSG xenograft model; parameters: species or system mouse; details: 10 mg/kg BID, CT-26 in NSG mice lacking T and NK cells
[6] = tested on: B16 melanoma; assay: In vivo efficacy study, B16 syngeneic melanoma model; parameters: species or system mouse; details: Compound 9 10 mg/kg BID combined with anti-PD-L1
[7] = HEK-293 cells, agonist NECA 12 nM, read-out: A2B_cAMP_EC50

Sequence of human adenosine A2B receptor (P29275 whole entry): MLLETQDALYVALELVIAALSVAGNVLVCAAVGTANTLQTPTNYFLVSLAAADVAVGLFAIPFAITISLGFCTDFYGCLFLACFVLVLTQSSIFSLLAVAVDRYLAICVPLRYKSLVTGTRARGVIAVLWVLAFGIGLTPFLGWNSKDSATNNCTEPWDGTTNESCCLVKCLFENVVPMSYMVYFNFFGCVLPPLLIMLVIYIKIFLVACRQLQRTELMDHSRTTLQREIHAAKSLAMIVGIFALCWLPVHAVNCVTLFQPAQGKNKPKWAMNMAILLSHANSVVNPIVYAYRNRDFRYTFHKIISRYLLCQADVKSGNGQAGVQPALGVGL
Sequence of Adenosine A2A Receptor (P29274 whole entry): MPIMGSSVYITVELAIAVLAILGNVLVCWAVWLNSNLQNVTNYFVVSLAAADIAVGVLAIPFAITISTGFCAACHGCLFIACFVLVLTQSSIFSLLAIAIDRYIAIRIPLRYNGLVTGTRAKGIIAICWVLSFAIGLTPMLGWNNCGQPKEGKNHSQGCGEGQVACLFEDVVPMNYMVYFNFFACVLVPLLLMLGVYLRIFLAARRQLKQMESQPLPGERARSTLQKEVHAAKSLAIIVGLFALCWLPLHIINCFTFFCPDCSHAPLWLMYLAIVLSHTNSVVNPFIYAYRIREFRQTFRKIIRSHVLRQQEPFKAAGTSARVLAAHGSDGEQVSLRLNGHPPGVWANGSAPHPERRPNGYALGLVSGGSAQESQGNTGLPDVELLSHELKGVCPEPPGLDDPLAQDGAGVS

SMILES	pKi [1]	pEC50 [2, 7]	also measured
N#Cc1cccc(-c2nc(N)c3nn(Cc4ncccc4F)nc3c2-c2ccncc2)c1 [Compound 15, 3-(4-amino-2-((3-fluoropyridin-2-yl)methyl)-7-(pyridin-4-yl)-2H-[1,2,3]triazolo[4,5-c]pyridin-6-yl)benzonitrile]	> 8.00	> 8.00	
N#Cc1cccc(-c2nc(N)n3nc(Cn4nnc(-c5ccccn5)n4)nc3c2-c2ccncn2)c1 [Compound 3]	> 8.00	> 8.00	
N#Cc1cccc(-c2nc(N)n3nc(Cn4nnc(-c5ccccn5)n4)nc3c2-c2ccncn2)c1 [Compound 3A, 3-(5-amino-2-((5-(pyridin-2-yl)-2H-tetrazol-2-yl)methyl)-8-(pyrimidin-4-yl)-[1,2,4]triazolo[1,5-c]pyrimidin-7-yl)benzonitrile]			effect of combination with atezolizumab [3]: synergistic effect; IFNγ production [3]: increase IFNγ production significantly
Cc1cc(-c2c(-c3cccc(C#N)c3)nc(N)c3nc(C(O)c4c(F)cccc4F)nn23)cc(C)n1 (single isomer, unassigned) [Compound 12, 3-(8-amino-2-((2,6-difluorophenyl)(hydroxy)methyl)-5-(2,6-dimethylpyridin-4-yl)-[1,2,4]triazolo[1,5-a]pyrazin-6-yl)benzonitrile]	> 8.00		pEC50 [2]: 7.00 to 8.00
Cn1nccc1-c1c(-c2cccc(C#N)c2F)nc(N)c2nn(Cc3ccccn3)nc12 [Compound 16, 3-(4-amino-7-(1-methyl-1H-pyrazol-5-yl)-2-(pyridin-2-ylmethyl)-2H-[1,2,3]triazolo[4,5-c]pyridin-6-yl)-2-fluorobenzonitrile]	> 8.00	> 8.00	
CCCCCn1c2cc(-c3cnn(Cc4cncc(Cl)c4)c3)[nH]c2c(=O)n2c(C)nnc12 [Compound 17, 7-(1-((5-Chloropyridin-3-yl)methyl)-1H-pyrazol-4-yl)-3-methyl-9-pentyl-6,9-dihydro-5H-pyrrolo[3,2-d][1,2,4]triazolo[4,3-a]pyrimidin-5-one]	> 8.00		
Cn1nc(-c2c(-c3cccc(C#N)c3)nc(N)c3nc(Cc4ccccn4)nn23)ccc1=O [Compound 9, 3-(8-Amino-5-(1-methyl-6-oxo-1,6-dihydropyridazin-3-yl)-2-(pyridin-2-ylmethyl)-[1,2,4]triazolo[1,5-a]pyrazin-6-yl)benzonitrile]	> 8.00		effect of combination with pembrolizumab ([4]; FIG. 1A): synergistic effect; effect of combination with Antibody X ([4]; FIG. 1B): synergistic effect; effect of combination with Compound Y ([4]; FIG. 1C): synergistic effect; effect of combination with atezolizumab [3]: synergistic effect; IFNγ production [3]: increase IFNγ production significantly; single agent efficacy [5]: no single agent efficacy; tumor growth inhibition [6]: 54%
N#Cc1cccc(-c2nc(N)n3nc(Cc4ccccn4)nc3c2-c2ccncn2)c1 [Compound 1, 3-(5-Amino-2-(pyridin-2-ylmethyl)-8-(pyrimidin-4-yl)-[1,2,4]triazolo[1,5-c]pyrimidin-7-yl)benzonitrile]	> 8.00		
N#Cc1cccc(-c2nc(N)c3nc(C(O)c4c(F)cccc4F)nn3c2-c2ccncn2)c1 (single isomer, unassigned) [Compound 10, 3-(8-Amino-2-((2,6-difluorophenyl)(hydroxy)methyl)-5-(pyrimidin-4-yl)-[1,2,4]triazolo[1,5-a]pyrazin-6-yl)benzonitrile]	> 8.00		pEC50 [2]: > 8.00
CCCCCn1c2cc(-c3cnn(Cc4cncc(C)c4)c3)[nH]c2c(=O)n2c(C)nnc12 [Compound 18, 3-Methyl-7-(1-((5-methylpyridin-3-yl)methyl)-1H-pyrazol-4-yl)-9-pentyl-6,9-dihydro-5H-pyrrolo[3,2-d][1,2,4]triazolo[4,3-a]pyrimidin-5-one]	> 8.00		
N#Cc1cccc(-c2cc3nc(C(O)c4c(F)cccc4F)nn3c(N)n2)c1F (stereo not drawn) [Compound 6, 3-(5-Amino-2-((2,6-difluorophenyl)(hydroxy)methyl)-[1,2,4]triazolo[1,5-c]pyrimidin-7-yl)-2-fluorobenzonitrile]	> 8.00		
Cc1cccnc1COc1nc2c(-c3ccncn3)c(-c3cccc(C#N)c3)nc(N)n2n1 [Compound 4, 3-(5-Amino-2-((3-methylpyridin-2-yl)methoxy)-8-(pyrimidin-4-yl)-[1,2,4]triazolo[1,5-c]pyrimidin-7-yl)benzonitrile]	> 8.00		
CN1CCC(NCc2cccc(F)c2C(O)c2nc3cc(-c4cccc(C#N)c4F)nc(N)n3n2)C1=O (stereo not drawn) [Compound 8, 3-(5-Amino-2-((2-fluoro-6-(((1-methyl-2-oxopyrrolidin-3-yl)amino)methyl)phenyl)(hydroxy)methyl)-[1,2,4]triazolo[1,5-c]pyrimidin-7-yl)-2-fluorobenzonitrile]	> 8.00		
CCCCCn1c2cc(-c3cnn(Cc4cnc5ccsc5c4)c3)[nH]c2c(=O)n2c(C)nnc12 [Compound 19, 3-Methyl-9-pentyl-7-(1-(thieno[3,2-b]pyridin-6-ylmethyl)-1H-pyrazol-4-yl)-6,9-dihydro-5H-pyrrolo[3,2-d][1,2,4]triazolo[4,3-a]pyrimidin-5-one]	> 8.00		
N#Cc1cccc(-c2nc(N)n3nc(Cn4nnc(-n5cccn5)n4)nc3c2-c2ccncn2)c1 [Compound 21]	> 8.00	> 8.00	
Cc1ncoc1-c1c(-c2cccc(C#N)c2)nc(N)c2nc(C(N)c3c(F)cccc3F)nn12 (stereo not drawn) [Compound 11, 3-(8-amino-2-(amino(2,6-difluorophenyl)methyl)-5-(4-methyloxazol-5-yl)-[1,2,4]triazolo[1,5-a]pyrazin-6-yl)benzonitrile]	> 8.00		
N#Cc1cccc(-c2nc(N)n3nc(C(O)c4c(F)cccc4F)nc3c2-c2ccncn2)c1 (stereo not drawn) [Compound 2, 3-(5-Amino-2-((2,6-difluorophenyl)(hydroxy)methyl)-8-(pyrimidin-4-yl)-[1,2,4]triazolo[1,5-c]pyrimidin-7-yl)benzonitrile]	> 8.00	> 8.00	
N#Cc1cccc(-c2nc(N)c3nn(Cc4ccccn4)nc3c2-c2ccncn2)c1 [Compound 13, 3-(4-amino-2-(pyridin-2-ylmethyl)-7-(pyrimidin-4-yl)-2H-[1,2,3]triazolo[4,5-c]pyridin-6-yl)benzonitrile]	> 8.00	> 8.00	
N#Cc1cccc(-c2nc(N)c3nn(Cc4ncccc4F)nc3c2-c2ccncn2)c1 [Compound 14, 3-(4-amino-2-((3-fluoropyridin-2-yl)methyl)-7-(pyrimidin-4-yl)-2H-[1,2,3]triazolo[4,5-c]pyridin-6-yl)benzonitrile]	> 8.00	> 8.00	
N#Cc1cccc(-c2cc3nc(C(O)c4ccccc4)nn3c(N)n2)c1 (stereo not drawn) [Compound 5, 3-(5-Amino-2-(hydroxy(phenyl)methyl)-[1,2,4]triazolo[1,5-c]pyrimidin-7-yl)benzonitrile]	> 8.00		
CCCCCn1c2cc(-c3cnn(Cc4ccc5c(c4)CCN(C(=O)CN(C)C)C5)c3)[nH]c2c(=O)n2c(C)nnc12 [Compound 20, 7-(1-((2-(2-(Dimethylamino)acetyl)-1,2,3,4-tetrahydroisoquinolin-6-yl)methyl)-1H-pyrazol-4-yl)-3-methyl-9-pentyl-6,9-dihydro-5H-pyrrolo[3,2-d][1,2,4]triazolo[4,3-a]pyrimidin-5-one]	> 8.00		
N#Cc1cccc(-c2nc(N)n3nc(C(O)c4c(F)cccc4F)nc3c2C#N)c1F (stereo not drawn) [Compound 7, 5-Amino-7-(3-cyano-2-fluorophenyl)-2-((2,6-difluorophenyl)(hydroxy)methyl)-[1,2,4]triazolo[1,5-c]pyrimidine-8-carbonitrile]	> 8.00		
